Test results: patent US20230081426A1, “COMPOUNDS AND METHODS FOR KRAS MODULATION AND INDICATIONS THEREFOR” (Plexxikon Inc., priority 2020, published 2023)

Assays:
[1] = molecular target: T1, G12V-mutant human KRAS (amino acid residues 1-188) (Homo sapiens, UniProt P01116, G12V); assay: KRAS Binding Competition Assay (AlphaScreen; biotinylated KRpep-2d analogue), G12V; conditions: geometric mean, read-out: KRAS GMean IC50 (uM) MUTATION: G12V
T1 construct: G12V-mutant human KRAS (amino acid residues 1-188) with FLAG tag was purified from E. coli; made in house; host or cells: E. coli
Experimental: Compound binding disrupts the interaction of KRpep-2d with KRAS, leading to a decrease in Alpha signal.
All assay components were prepared in 20 mM HEPES (pH 7.5), 100 mM NaCl, 5 mM MgCl2, 0.01% Tween-20, and 0.01% BSA. Biotinylated analogues of KRpep-2d were custom synthesized. The binding competition assays were performed using 10 nM of mutant KRAS and 10 nM of biotinylated KRpep-2d analogue. 19 μL of KRAS protein and 4 μL of biotinylated KRpep-2d were added to the wells of a 384-well plate containing 1 μL of various concentrations of test compound or DMSO vehicle. 16 wells containing KRAS, biotinylated KRpep-2d, and 5% DMSO served as high controls. 16 wells containing KRAS only and 5% DMSO served as low controls. Binding reactions were incubated for 1 hour at 25° C., then Anti-Flag Acceptor and Streptavidin Donor Alpha beads were added at a final concentration of 10 μg/mL for an additional hour at room temperature. Alpha signal was read out on a Perkin Elmer Envision HTS instrument. The percentage inhibition at individual compound concentrations relative to high and low controls was calculated. The data were analyzed by using nonlinear regression to generate IC50 values.

[2] = molecular target: T2, G12D-mutant human KRAS (amino acid residues 1-188) (Homo sapiens, UniProt P01116, G12D); assay: KRAS Binding Disruption Assay (AlphaScreen; biotinylated KRpep-2d analogue or RAF1-RBD), G12D; conditions: KRAS G12D; geometric mean; read-out: KRAS GMean IC50 (uM) MUTATION: G12D
T2 construct: G12D or G12C-mutant human KRAS (amino acid residues 1-188) with FLAG tag; made in house; host or cells: E. coli
Method in brief: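 Displacement format with mutant KRAS, biotinylated KRpep-2d analogue or RAF1-RBD (5-20 nM each) at pH 7.5 with 5 mM MgCl2.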

Row | IC50 [1] [µM] | IC50 [2] [µM] | Structure (SMILES)
1 | 0.0001 to 10 | 0.0001 to 10 | O=C(CCCN1CCCCC1)N1[C@@H]2CC[C@H]1CN(c1nc(OCC34CCCN3CCC4)nc3c(F)c(-c4cc(O)cc5ccccc45)ccc13)C2 [P-0150, 1-((1R,5S)-3-(8-fluoro-7-(3-hydroxynaphthalen-1-yl)-2-((tetrahydro-1H-pyrrolizin-7a(5H)-yl)methoxy)quinazolin-4-yl)-3,8-diazabicyclo[3.2.1]octan-8-yl)-4-(piperidin-1-yl)butan-1-one]
2 | 0.0001 to 10 | 0.0001 to 10 | CN1CCC[C@H]1COc1nc(N2C[C@H]3CC[C@@H](C2)N3C(=O)CS(N)(=O)=O)c2ccc(-c3cc(O)cc4ccccc34)cc2n1 [P-0407, 2-((1R,5S)-3-(7-(3-hydroxynaphthalen-1-yl)-2-(((S)-1-methylpyrrolidin-2-yl)methoxy)quinazolin-4-yl)-3,8-diazabicyclo[3.2.1]octan-8-yl)-2-oxoethane-1-sulfonamide]
3 | 0.0001 to 10 | 0.0001 to 10 | CN1CCCC1COc1nc(N2C[C@H]3CC[C@@H](C2)N3C(=O)NO)c2ccc(-c3cc(O)cc4ccccc34)c(F)c2n1 (stereo partly drawn) [P-0422, (1R,5S)-3-(8-fluoro-7-(3-hydroxynaphthalen-1-yl)-2-((1-methylpyrrolidin-2-yl)methoxy)quinazolin-4-yl)-N-hydroxy-3,8-diazabicyclo[3.2.1]octane-8-carboxamide]
4 | 10 to 100 | 10 to 100 | CNCC(=O)N1C[C@H]2CC[C@@H](C1)N2c1nc(OC[C@@H]2CCCN2C)nc2cc(-c3cc(O)cc4ccccc34)ccc12 [P-0206, 1-((1R,5S)-8-(7-(3-hydroxynaphthalen-1-yl)-2-(((S)-1-methylpyrrolidin-2-yl)methoxy)quinazolin-4-yl)-3,8-diazabicyclo[3.2.1]octan-3-yl)-2-(methylamino)ethan-1-one]
5 | 0.0001 to 10 | 0.0001 to 10 | Cc1cccc2cc(O)cc(-c3ccc4c(N5C[C@H]6CC[C@@H](C5)N6)nc(OC[C@@H]5CCCN5C)nc4c3F)c12 [P-0073, 4-(4-((1R,5S)-3,8-diazabicyclo[3.2.1]octan-3-yl)-8-fluoro-2-(((S)-1-methylpyrrolidin-2-yl)methoxy)quinazolin-7-yl)-5-methylnaphthalen-2-ol]
6 | 100 to 1000 | 100 to 1000 | Cc1ccnc(-c2ccc3c(N4[C@@H]5CC[C@H]4CNC5)nc(OC[C@@H]4CCCN4C)nc3c2)c1C [P-0261, 4-((1R,5S)-3,8-diazabicyclo[3.2.1]octan-8-yl)-7-(3,4-dimethylpyridin-2-yl)-2-(((S)-1-methylpyrrolidin-2-yl)methoxy)quinazoline]
7 | 10 to 100 | 0.0001 to 10 | CNCC(=O)N1[C@@H]2CC[C@H]1CN(c1nc(OC[C@@H]3CCCN3C)nc3c(F)c(-c4cc(O)cc5ccccc45)ccc13)C2 [P-0426, 1-((1R,5S)-3-(8-fluoro-7-(3-hydroxynaphthalen-1-yl)-2-(((S)-1-methylpyrrolidin-2-yl)methoxy)quinazolin-4-yl)-3,8-diazabicyclo[3.2.1]octan-8-yl)-2-(methylamino)ethan-1-one]
8 | 10 to 100 | 0.0001 to 10 | CN1CCC[C@H]1COc1nc(N2CC3CC(C2)N3)c2cc(Cl)c(-c3cc(O)cc4ccccc34)c(F)c2n1 [P-0031, 4-(4-(3,6-diazabicyclo[3.1.1]heptan-3-yl)-6-chloro-8-fluoro-2-(((S)-1-methylpyrrolidin-2-yl)methoxy)quinazolin-7-yl)naphthalen-2-ol]
9 | 10 to 100 | 0.0001 to 10 | CCCc1nc(N2C[C@H]3CC[C@@H](C2)N3)c2ccc(-c3cc(O)cc4ccccc34)c(F)c2n1 [P-0455, 4-(4-((1R,5S)-3,8-diazabicyclo[3.2.1]octan-3-yl)-8-fluoro-2-propylquinazolin-7-yl)naphthalen-2-ol]
10 | 10 to 100 | 0.0001 to 10 | Fc1cc2c(N3C[C@H]4CC[C@@H](C3)N4)nc(OCC34CCCN3CCC4)nc2c(F)c1-c1c[nH]c2cccc(F)c12 [P-0448, 4-((1R,5S)-3,8-diazabicyclo[3.2.1]octan-3-yl)-6,8-difluoro-7-(4-fluoro-1H-indol-3-yl)-2-((tetrahydro-1H-pyrrolizin-7a(5H)-yl)methoxy)quinazoline]
11 | 0.0001 to 10 | 0.0001 to 10 | C[C@@H](Oc1nc(N2C[C@H]3CC[C@@H](C2)N3)c2ccc(-c3cc(O)cc4ccccc34)cc2n1)[C@@H]1CCCN1C [P-0245, 4-(4-((1R,5S)-3,8-diazabicyclo[3.2.1]octan-3-yl)-2-((R)-1-((S)-1-methylpyrrolidin-2-yl)ethoxy)quinazolin-7-yl)naphthalen-2-ol]
12 | 10 to 100 | 10 to 100 | Cc1cccc(N)c1-c1ccc2c(N3C[C@H]4CC[C@@H](C3)N4)nc(OC[C@@H]3CCCN3C)nc2c1 [P-0343, 2-(4-((1R,5S)-3,8-diazabicyclo[3.2.1]octan-3-yl)-2-(((S)-1-methylpyrrolidin-2-yl)methoxy)quinazolin-7-yl)-3-methylaniline]
13 | 0.0001 to 10 | 0.0001 to 10 | CN1CCC[C@H]1COc1nc(N2C[C@H]3CC[C@@H](C2)N3C(=O)CC(N)=O)c2ccc(-c3cc(O)cc4ccccc34)c(F)c2n1 [P-0398, 3-((1R,5S)-3-(8-fluoro-7-(3-hydroxynaphthalen-1-yl)-2-(((S)-1-methylpyrrolidin-2-yl)methoxy)quinazolin-4-yl)-3,8-diazabicyclo[3.2.1]octan-8-yl)-3-oxopropanamide]
14 | 0.0001 to 10 | 0.0001 to 10 | Cc1cccc2cc(O)cc(-c3c(F)cc4c(N5C[C@H]6CC[C@@H](C5)N6)nc(OC[C@@H]5CCCN5C)nc4c3F)c12 [P-0087, 4-(4-((1R,5S)-3,8-diazabicyclo[3.2.1]octan-3-yl)-6,8-difluoro-2-(((S)-1-methylpyrrolidin-2-yl)methoxy)quinazolin-7-yl)-5-methylnaphthalen-2-ol]
15 | 100 to 1000 | 10 to 100 | CN1CCC[C@H]1COc1nc(N2C[C@H]3CC[C@@H](C2)N3)c2ccc(-c3cc4ccccc4s3)cc2n1 [P-0153, 7-(benzo[b]thiophen-2-yl)-4-((1R,5S)-3,8-diazabicyclo[3.2.1]octan-3-yl)-2-(((S)-1-methylpyrrolidin-2-yl)methoxy)quinazoline]
16 | 10 to 100 | 0.0001 to 10 | CN1CCC(Oc2nc(N3C[C@H]4CC[C@@H](C3)N4)c3cc(Cl)c(-c4c(O)cccc4F)c(F)c3n2)CC1 [P-0329, 2-(4-((1R,5S)-3,8-diazabicyclo[3.2.1]octan-3-yl)-6-chloro-8-fluoro-2-((1-methylpiperidin-4-yl)oxy)quinazolin-7-yl)-3-fluorophenol]
17 | 10 to 100 | 0.0001 to 10 | CN1CCC[C@H]1COc1nc(N2CCC3CCC(C2)N3)c2cc(Cl)c(-c3cc(O)cc4ccccc34)c(F)c2n1 (stereo partly drawn) [P-0046, 4-(4-(3,9-diazabicyclo[4.2.1]nonan-3-yl)-6-chloro-8-fluoro-2-(((S)-1-methylpyrrolidin-2-yl)methoxy)quinazolin-7-yl)naphthalen-2-ol]
18 | 0.0001 to 10 | 0.0001 to 10 | CN1CCCC1COc1nc(N2C[C@H]3CC[C@@H](C2)N3C(=O)NCC(N)=O)c2ccc(-c3cc(O)cc4ccccc34)c(F)c2n1 (stereo partly drawn) [P-0423, (1R,5S)-N-(2-amino-2-oxoethyl)-3-(8-fluoro-7-(3-hydroxynaphthalen-1-yl)-2-((1-methylpyrrolidin-2-yl)methoxy)quinazolin-4-yl)-3,8-diazabicyclo[3.2.1]octane-8-carboxamide]
19 | 100 to 1000 | 10 to 100 | Cc1n[nH]c2cccc(-c3ccc4c(N5C[C@H]6CC[C@@H](C5)N6)nc(OC[C@@H]5CCCN5C)nc4c3)c12 [P-0172, 4-((1R,5S)-3,8-diazabicyclo[3.2.1]octan-3-yl)-7-(3-methyl-1H-indazol-4-yl)-2-(((S)-1-methylpyrrolidin-2-yl)methoxy)quinazoline]
20 | 10 to 100 | 10 to 100 | CN1CCN(CCCC(=O)N2C3COCC2CN(c2nc(OC[C@@H]4CCCN4C)nc4c(F)c(-c5cc(O)cc6ccccc56)ccc24)C3)CC1 [P-0252, 1-(7-(8-fluoro-7-(3-hydroxynaphthalen-1-yl)-2-(((S)-1-methylpyrrolidin-2-yl)methoxy)quinazolin-4-yl)-3-oxa-7,9-diazabicyclo[3.3.1]nonan-9-yl)-4-(4-methylpiperazin-1-yl)butan-1-one]
21 | 10 to 100 | 0.0001 to 10 | O=[N+]([O-])c1ccc(COc2nc(N3C[C@H]4CC[C@@H](C3)N4)c3cc(Cl)c(-c4c(O)cccc4F)c(F)c3n2)cc1 [P-0389, 2-(4-((1R,5S)-3,8-diazabicyclo[3.2.1]octan-3-yl)-6-chloro-8-fluoro-2-((4-nitrobenzyl)oxy)quinazolin-7-yl)-3-fluorophenol]
